Legend:
Format in all cases: in vivo, nude/nude mice
[1] = system: Panc 02.03 cells; assay: Panc 02.03 pancreatic cancer xenograft tumor volume; settings: for Average Tumor Volumes: Panc 02.03 tumor bearing mice
Protocol: (§1) Immunocompromised nude/nude mice are inoculated in the right hind flank with cells harboring a KRas G12D mutation. When tumor volumes reach between 200-400 mm^3 in size, the mice are divided into four to five groups of 5 mice each. The first group is administered vehicle only. […] The fourth group is administered the single agent dose of the KRas G12D inhibitor using the twice daily for 2 sequential days followed by 5 days off schedule in combination with the single agent dose of the SHP-2 inhibitor. The treatment period varies from cell line to cell line but typically is between 15-28-days. Tumor volumes are measured using a caliper every two three days and tumor volumes are calculated by the formula: […].
(§2) 20 to 25 nude/nude mice per study were inoculated in the right hind limb with 5×10^6 LS180 cells, GP2D cells, Panc 02.03 cells, or AsPC-1 cells. When tumor volumes reached ˜200 mm^3-400 mm3 (study day 0) 5 mice in each of the groups were administered i.p. vehicle only (10% captisol in 50 mM citrate buffer pH 5.0), 30 mg/kg of Kras G12) inhibitor MRTX1133 (10% captisol in 50 mM citrate buffer, pH 5.0) either on the twice daily schedule or the twice daily for 2 consecutive days followed by 5 days off schedule, 10 mg/kg twice daily of the TNO-155 (0.5% methylcellulose and 0.1% Tween 80 in water) SHP2 inhibitor or 30 mg/kg once daily of the RMC-4550 (10% captisol in 50 mM citrate buffer pH 5.0) SHP2 inhibitor, or 30 mg/kg of Kras G12D inhibitor on either schedule and either TNO-155 or RMC-4550. Tumor volumes, measured at pre-specified days, for the five mice per group were averaged and are reported for LS180, GP2D, Panc 02.03, and AsPC-1 in Tables 2, 3, 4 and 5, respectively.
Experimental Procedures. 25 nude/nude mice were inoculated with Panc 02.03 cells in the right hind flank. When the tumors reached ˜300 mm^3 four treatment groups were established with five mice per group.

[2] = system: AsPC-1 cells; assay: AsPC-1 pancreatic cancer xenograft tumor volume; settings: for Average Tumor Volumes: AsPC-1 tumor bearing mice
Protocol: as §1, §2
Experimental Procedures. 20 nude/nude mice were inoculated with AsPC-1 cells in the right hind flank. When the tumors reached ˜200 mm^3 four treatment groups were established with five mice per group.

[3] = system: GP2D cells; assay: GP2D colon cancer xenograft tumor volume; settings: for Average Tumor Volumes: GP2D TGI-38 tumor bearing mice
Protocol: as §1, §2
20 nude/nude mice were inoculated with GP2D cells in the right hind flank. When the tumors reached ˜300 mm^3 four treatment groups were established with five mice per group.

[4] = system: LS180 cells; assay: LS180 colon cancer xenograft tumor volume; settings: for Average Tumor Volumes: LS180 tumor bearing mice, TNO155 10 mg/kg BID Daily
Protocol: as §1, §2
25 nude/nude mice were inoculated with LS180 cells in the right hind flank. When the tumors reached ˜250 mm^3 five treatment groups were established with five mice per group.

[5] = MRTX1133 30 mg/kg BID Daily, Study Day 1
[6] = TNO155 10 mg/kg BID Daily, Study Day 1

C#Cc1c(F)ccc2cc(O)cc(-c3ncc4c(N5C[C@H]6CC[C@@H](C5)N6)nc(OC[C@@]56CCCN5C[C@H](F)C6)nc4c3F)c12 [MRTX1133, 4-(4-((1R,5S)-3,8-diazabicyclo[3.2.1]octan-3-yl)-8-fluoro-2-(((2R,7aS)-2-fluorohexahydro-1H-pyrrolizin-7a-yl)methoxy)pyrido[4,3-d]pyrimidin-7-yl)-5-ethynyl-6-fluoronaphthalen-2-ol]
tumor regression ([1]; Panc 02.03, MRTX1133 30 mg/kg BID, daily administration, single agent, Day 22): −33%
Average Tumor Volumes [1, 5]: 329.056 mm^3
Average Tumor Volumes ([1]; MRTX1133 30 mg/kg BID Daily, Study Day 4): 282.836 mm^3
Average Tumor Volumes ([1]; MRTX1133 30 mg/kg BID Daily, Study Day 8): 208.15 mm^3
Average Tumor Volumes ([1]; MRTX1133 30 mg/kg BID Daily, Study Day 11): 189.782 mm^3
Average Tumor Volumes ([1]; MRTX1133 30 mg/kg BID Daily, Study Day 15): 205.992 mm^3
Average Tumor Volumes ([1]; MRTX1133 30 mg/kg BID Daily, Study Day 18): 227.806 mm^3
Average Tumor Volumes ([1]; MRTX1133 30 mg/kg BID Daily, Study Day 22): 220.912 mm^3
tumor regression ([2]; AsPC-1, MRTX1133 30 mg/kg BID daily, single agent, Day 23): −28%
Average Tumor Volumes [2, 5]: 193.378 mm^3
Average Tumor Volumes ([2]; MRTX1133 30 mg/kg BID Daily, Study Day 6): 168.124 mm^3
Average Tumor Volumes ([2]; MRTX1133 30 mg/kg BID Daily, Study Day 9): 146.75 mm^3
Average Tumor Volumes ([2]; MRTX1133 30 mg/kg BID Daily, Study Day 13): 143.612 mm^3
Average Tumor Volumes ([2]; MRTX1133 30 mg/kg BID Daily, Study Day 16): 120.916 mm^3
Average Tumor Volumes ([2]; MRTX1133 30 mg/kg BID Daily, Study Day 20): 119.264 mm^3
Average Tumor Volumes ([2]; MRTX1133 30 mg/kg BID Daily, Study Day 23): 139.296 mm^3
Average Tumor Volumes ([3]; MRTX1133 30 mg/kg BID Daily, Study Day 31): 333.196 mm^3

Cc1nc(N2CCC3(CC2)CO[C@@H](C)[C@H]3N)c(CO)nc1-c1cccc(Cl)c1Cl [RMC-4550, (3-((3S,4S)-4-amino-3-methyl-2-oxa-8-azaspiro[4.5]decan-8-yl)-6-(2,3-dichlorophenyl)-5-methylpyrazin-2-yl)methanol]
Average Tumor Volumes ([3]; RMC-4550 30 mg/kg Once Daily, Study Day 1): 300.014 mm^3
Average Tumor Volumes ([3]; RMC-4550 30 mg/kg Once Daily, Study Day 7): 353.148 mm^3
Average Tumor Volumes ([3]; RMC-4550 30 mg/kg Once Daily, Study Day 10): 398.576 mm^3
Average Tumor Volumes ([3]; RMC-4550 30 mg/kg Once Daily, Study Day 14): 497.714 mm^3
Average Tumor Volumes ([3]; RMC-4550 30 mg/kg Once Daily, Study Day 17): 530.072 mm^3
Average Tumor Volumes ([3]; RMC-4550 30 mg/kg Once Daily, Study Day 21): 567.882 mm^3
Average Tumor Volumes ([3]; RMC-4550 30 mg/kg Once Daily, Study Day 26): 685.836 mm^3
Average Tumor Volumes ([3]; RMC-4550 30 mg/kg Once Daily, Study Day 28): 807.148 mm^3
Average Tumor Volumes ([3]; RMC-4550 30 mg/kg Once Daily, Study Day 31): 970.626 mm^3
Average Tumor Volumes ([3]; RMC-4550 30 mg/kg Once Daily, Study Day 35): 1027.032 mm^3
tumor growth inhibition ([3]; GP2D, RMC-4550 30 mg/kg QD, single agent, Day 35): 56%

C[C@@H]1OCC2(CCN(c3cnc(Sc4ccnc(N)c4Cl)c(N)n3)CC2)[C@@H]1N [TNO155]
tumor growth inhibition ([4]; LS180, TNO155 10 mg/kg BID daily, single agent, Day 15): 48%
Average Tumor Volumes ([4]; Study Day 1): 272.732 mm^3
Average Tumor Volumes ([4]; Study Day 4): 568.234 mm^3
Average Tumor Volumes ([4]; Study Day 8): 888.474 mm^3
Average Tumor Volumes ([4]; Study Day 11): 1009.462 mm^3
Average Tumor Volumes ([4]; Study Day 15): 1155.8525 mm^3
tumor growth inhibition ([1]; Panc 02.03, TNO155 10 mg/kg BID daily, single agent, Day 22): 58%
Average Tumor Volumes [1, 6]: 330.644 mm^3
Average Tumor Volumes ([1]; TNO155 10 mg/kg BID Daily, Study Day 4): 365.57 mm^3
Average Tumor Volumes ([1]; TNO155 10 mg/kg BID Daily, Study Day 8): 469.4 mm^3
Average Tumor Volumes ([1]; TNO155 10 mg/kg BID Daily, Study Day 11): 522.856 mm^3
Average Tumor Volumes ([1]; TNO155 10 mg/kg BID Daily, Study Day 15): 571.16 mm^3
Average Tumor Volumes ([1]; TNO155 10 mg/kg BID Daily, Study Day 18): 622.47 mm^3
Average Tumor Volumes ([1]; TNO155 10 mg/kg BID Daily, Study Day 22): 657.502 mm^3
tumor growth inhibition ([2]; AsPC-1, TNO155 10 mg/kg BID daily, single agent, Day 23): 0%
Average Tumor Volumes [2, 6]: 192.408 mm^3
Average Tumor Volumes ([2]; TNO155 10 mg/kg BID Daily, Study Day 6): 262.654 mm^3
Average Tumor Volumes ([2]; TNO155 10 mg/kg BID Daily, Study Day 9): 263.966 mm^3
Average Tumor Volumes ([2]; TNO155 10 mg/kg BID Daily, Study Day 13): 301.71 mm^3
Average Tumor Volumes ([2]; TNO155 10 mg/kg BID Daily, Study Day 16): 317.812 mm^3
Average Tumor Volumes ([2]; TNO155 10 mg/kg BID Daily, Study Day 20): 360.412 mm^3
Average Tumor Volumes ([2]; TNO155 10 mg/kg BID Daily, Study Day 23): 456.218 mm^3

Source: patent US20240423984A1, “COMBINATION THERAPIES OF KRAS G12D INHIBITORS WITH SHP-2 INHIBITORS” (MIRATI THERAPEUTICS, INC., priority 2021, published 2024)
